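1) Cells in 96-well plates. 2) Compound, 48 h, 5 concentrations. 3) Linear interpolation between surrounding doses. 4) Unreached endpoint = highest concentration. GI50 marks 50% less growth.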 The source made the active and inactive calls. Rule as the data show it: active = GI50 up to about 1.1 µM and inactive = higher.
Columns and labels:
Assay in all cases: NCI anticancer screen, dose series, 48 h
HT-29 = test system: HT-29
NCI-H522 = test system: NCI-H522
OVCAR-4 = test system: OVCAR-4
HCT-15 = test system: HCT-15
A498 = test system: A498
CAKI-1 = test system: CAKI-1
HOP-62 = test system: HOP-62
IGROV-1 = test system: IGROV-1
RXF 631 = test system: RXF 631
HL-60 = test system: HL-60
SF-539 = test system: SF-539
SF-268 = test system: SF-268
OVCAR-8 = test system: OVCAR-8
SW-620 = test system: SW-620
Malme-3M = test system: Malme-3M
TK-10 = test system: TK-10
UACC-62 = test system: UACC-62
LXFL 529 = test system: LXFL 529
HCT-116 = test system: HCT-116
DMS-273 = test system: DMS-273
UACC-257 = test system: UACC-257
OVCAR-3 = test system: OVCAR-3
EKVX = test system: EKVX
SK-MEL-2 = test system: SK-MEL-2
CCRF-CEM = test system: CCRF-CEM
KM12 = test system: KM12
COLO 205 = test system: COLO 205
SN12C = test system: SN12C
OVCAR-5 = test system: OVCAR-5
U-251 = test system: U-251
RPMI-8226 = test system: RPMI-8226
SNB-75 = test system: SNB-75
NCI-H460 = test system: NCI-H460
RXF 393 = test system: RXF 393
M19-MEL = test system: M19-MEL
SK-MEL-28 = test system: SK-MEL-28
M14 = test system: M14
HCC 2998 = test system: HCC 2998
HOP-92 = test system: HOP-92
ACHN = test system: ACHN
LOX IMVI = test system: LOX IMVI
SK-MEL-5 = test system: SK-MEL-5
UO-31 = test system: UO-31
SNB-19 = test system: SNB-19
SF-295 = test system: SF-295
DLD-1 = test system: DLD-1
SNB-78 = test system: SNB-78
786-0 = test system: 786-0
A549 = test system: A549
MOLT-4 = test system: MOLT-4
DMS-114 = test system: DMS-114
SK-OV-3 = test system: SK-OV-3
NCI-H23 = test system: NCI-H23
K562 = test system: K562
NCI-H226 = test system: NCI-H226
MDA-MB-435 = test system: MDA-MB-435
BT-549 = test system: BT-549
HOP-18 = test system: HOP-18
MCF7 = test system: MCF7
NCI/ADR-RES = test system: NCI/ADR-RES
Hs-578T = test system: Hs-578T
PC-3 = test system: PC-3
SR = test system: SR
DU-145 = test system: DU-145
KM-20L2 = test system: KM-20L2
T47D = test system: T47D
XF498 = test system: XF498
MDA-N = test system: MDA-N
MDA-MB-231 = test system: MDA-MB-231

CC1(C)C2C/C(=C\c3ccccc3)C(=O)C1C2 (stereo not drawn)
GI50 (HT-29): 87.9 µM (inactive)
GI50 (NCI-H522): 40.9 µM (inactive)
GI50 (OVCAR-4): > 100 µM (inactive)
GI50 (HCT-15): > 100 µM
GI50 (A498): > 100 µM (inactive)
GI50 (CAKI-1): > 100 µM (inactive)
GI50 (HOP-62): > 100 µM (inactive)
GI50 (IGROV-1): > 100 µM (inactive)
GI50 (RXF 631): > 100 µM (inactive)
GI50 (HL-60): 35.9 µM (inactive)
GI50 (SF-539): > 100 µM (inactive)
GI50 (SF-268): 79.8 µM (inactive)
GI50 (OVCAR-8): > 100 µM (inactive)
GI50 (SW-620): > 100 µM (inactive)
GI50 (Malme-3M): > 100 µM (inactive)
GI50 (TK-10): > 100 µM (inactive)
GI50 (UACC-62): > 100 µM (inactive)
GI50 (LXFL 529): > 100 µM (inactive)
GI50 (HCT-116): 90.4 µM (inactive)
GI50 (DMS-273): > 100 µM (inactive)
GI50 (UACC-257): 58.1 µM (inactive)
GI50 (OVCAR-3): > 100 µM (inactive)
GI50 (EKVX): 86.9 µM (inactive)
GI50 (SK-MEL-2): > 100 µM (inactive)
GI50 (CCRF-CEM): > 100 µM (inactive)
GI50 (KM12): > 100 µM (inactive)
GI50 (COLO 205): > 100 µM (inactive)
GI50 (SN12C): > 100 µM (inactive)
GI50 (OVCAR-5): > 100 µM (inactive)
GI50 (U-251): > 100 µM (inactive)
GI50 (RPMI-8226): 61.8 µM (inactive)
GI50 (SNB-75): 25.1 µM (inactive)
GI50 (NCI-H460): > 100 µM (inactive)
GI50 (RXF 393): 27.6 µM (inactive)
GI50 (M19-MEL): > 100 µM (inactive)
GI50 (SK-MEL-28): 87.5 µM (inactive)
GI50 (M14): > 100 µM (inactive)
GI50 (HCC 2998): > 100 µM (inactive)
GI50 (HOP-92): > 100 µM (inactive)
GI50 (ACHN): > 100 µM (inactive)
GI50 (LOX IMVI): > 100 µM (inactive)
GI50 (SK-MEL-5): 45.5 µM (inactive)
GI50 (UO-31): 31.1 µM (inactive)
GI50 (SNB-19): > 100 µM (inactive)
GI50 (SF-295): > 100 µM (inactive)
GI50 (DLD-1): 83.4 µM (inactive)
GI50 (SNB-78): > 100 µM (inactive)
GI50 (786-0): > 100 µM (inactive)
GI50 (A549): 93.5 µM (inactive)
GI50 (MOLT-4): 56.9 µM (inactive)
GI50 (DMS-114): 68.1 µM (inactive)
GI50 (SK-OV-3): > 100 µM (inactive)
GI50 (NCI-H23): 55.8 µM (inactive)
GI50 (K562): > 100 µM (inactive)

COc1cccc2ccc3c(c12)C(=O)OC31CCc2c(C)cccc21 (stereo not drawn)
GI50 (HT-29): 11.8 µM (inactive)
GI50 (NCI-H522): 21.4 µM (inactive)
GI50 (OVCAR-4): 15.2 µM (inactive)
GI50 (HCT-15): 10.3 µM
GI50 (NCI-H226): 12 µM (inactive)
GI50 (A498): 7.41 µM (inactive)
GI50 (CAKI-1): 7.26 µM (inactive)
GI50 (HOP-62): 18.5 µM (inactive)
GI50 (IGROV-1): 34.5 µM (inactive)
GI50 (HL-60): 8.59 µM (inactive)
GI50 (MDA-MB-435): 20.4 µM (inactive)
GI50 (SF-539): 31.3 µM (inactive)
GI50 (SF-268): 30.3 µM (inactive)
GI50 (BT-549): > 100 µM (inactive)
GI50 (HOP-18): > 31.6 µM (inactive)
GI50 (OVCAR-8): 15.8 µM (inactive)
GI50 (SW-620): 12.1 µM (inactive)
GI50 (Malme-3M): 19.1 µM (inactive)
GI50 (TK-10): 23.1 µM (inactive)
GI50 (UACC-62): 11.6 µM (inactive)
GI50 (LXFL 529): 15 µM (inactive)
GI50 (HCT-116): 8.49 µM (inactive)
GI50 (DMS-273): 6.81 µM (inactive)
GI50 (UACC-257): 23.4 µM (inactive)
GI50 (MCF7): 0.018 µM (active)
GI50 (OVCAR-3): 10.3 µM (inactive)
GI50 (NCI/ADR-RES): 13.4 µM (inactive)
GI50 (EKVX): 27.1 µM (inactive)
GI50 (SK-MEL-2): 32.1 µM (inactive)
GI50 (CCRF-CEM): 24 µM (inactive)
GI50 (KM12): 23.7 µM (inactive)
GI50 (COLO 205): 22.6 µM (inactive)
GI50 (SN12C): 16.5 µM (inactive)
GI50 (Hs-578T): 38.5 µM (inactive)
GI50 (PC-3): 15.6 µM (inactive)
GI50 (OVCAR-5): 26.5 µM (inactive)
GI50 (U-251): 23.2 µM (inactive)
GI50 (RPMI-8226): 6.87 µM (inactive)
GI50 (SR): 7.16 µM (inactive)
GI50 (SNB-75): 13.4 µM (inactive)
GI50 (NCI-H460): 10.6 µM (inactive)
GI50 (RXF 393): 8.97 µM (inactive)
GI50 (M19-MEL): 15.5 µM (inactive)
GI50 (DU-145): 34.2 µM (inactive)
GI50 (SK-MEL-28): 22.4 µM (inactive)
GI50 (M14): 19.9 µM (inactive)
GI50 (HCC 2998): 26.7 µM (inactive)
GI50 (HOP-92): 11.2 µM (inactive)
GI50 (ACHN): 8.04 µM (inactive)
GI50 (LOX IMVI): 14.2 µM (inactive)
GI50 (SK-MEL-5): 10.2 µM (inactive)
GI50 (UO-31): 9.16 µM (inactive)
GI50 (KM-20L2): 15 µM (inactive)
GI50 (SNB-19): 11.4 µM (inactive)
GI50 (T47D): 32.4 µM (inactive)
GI50 (SF-295): 9.95 µM (inactive)
GI50 (DLD-1): 8.79 µM (inactive)
GI50 (SNB-78): 39.1 µM (inactive)
GI50 (786-0): 28.8 µM (inactive)
GI50 (A549): 17.1 µM (inactive)
GI50 (XF498): 14.4 µM (inactive)
GI50 (MOLT-4): 13.2 µM (inactive)
GI50 (MDA-N): 7.55 µM (inactive)
GI50 (DMS-114): 8.67 µM (inactive)
GI50 (SK-OV-3): > 46.5 µM (inactive)
GI50 (NCI-H23): 8.51 µM (inactive)
GI50 (K562): 7.91 µM (inactive)
GI50 (MDA-MB-231): 36.1 µM (inactive)

O=C1NCCS(=O)(=O)N2CCC[C@@H]12
GI50 (HT-29): > 100 µM (inactive)
GI50 (NCI-H522): > 100 µM (inactive)
GI50 (OVCAR-4): > 100 µM (inactive)
GI50 (HCT-15): > 100 µM
GI50 (NCI-H226): 60.3 µM (inactive)
GI50 (A498): > 100 µM (inactive)
GI50 (CAKI-1): > 100 µM (inactive)
GI50 (HOP-62): > 100 µM (inactive)
GI50 (IGROV-1): > 100 µM (inactive)
GI50 (RXF 631): > 100 µM (inactive)
GI50 (HL-60): > 100 µM (inactive)
GI50 (SF-539): > 100 µM (inactive)
GI50 (SF-268): > 100 µM (inactive)
GI50 (HOP-18): > 100 µM (inactive)
GI50 (OVCAR-8): > 100 µM (inactive)
GI50 (SW-620): > 100 µM (inactive)
GI50 (Malme-3M): > 100 µM (inactive)
GI50 (TK-10): > 100 µM (inactive)
GI50 (UACC-62): > 100 µM (inactive)
GI50 (LXFL 529): > 100 µM (inactive)
GI50 (HCT-116): > 100 µM (inactive)
GI50 (UACC-257): > 100 µM (inactive)
GI50 (OVCAR-3): > 100 µM (inactive)
GI50 (EKVX): > 100 µM (inactive)
GI50 (CCRF-CEM): > 100 µM (inactive)
GI50 (KM12): > 100 µM (inactive)
GI50 (COLO 205): > 100 µM (inactive)
GI50 (SN12C): > 100 µM (inactive)
GI50 (OVCAR-5): > 100 µM (inactive)
GI50 (U-251): > 100 µM (inactive)
GI50 (RPMI-8226): > 100 µM (inactive)
GI50 (SR): > 100 µM (inactive)
GI50 (SNB-75): > 100 µM (inactive)
GI50 (NCI-H460): > 100 µM (inactive)
GI50 (RXF 393): > 100 µM (inactive)
GI50 (M19-MEL): > 100 µM (inactive)
GI50 (SK-MEL-28): > 100 µM (inactive)
GI50 (M14): > 100 µM (inactive)
GI50 (HCC 2998): > 100 µM (inactive)
GI50 (HOP-92): > 100 µM (inactive)
GI50 (ACHN): > 100 µM (inactive)
GI50 (LOX IMVI): > 100 µM (inactive)
GI50 (SK-MEL-5): > 100 µM (inactive)
GI50 (UO-31): > 100 µM (inactive)
GI50 (KM-20L2): > 100 µM (inactive)
GI50 (SNB-19): > 100 µM (inactive)
GI50 (SF-295): > 100 µM (inactive)
GI50 (DLD-1): > 100 µM (inactive)
GI50 (SNB-78): > 100 µM (inactive)
GI50 (786-0): > 100 µM (inactive)
GI50 (A549): > 100 µM (inactive)
GI50 (MOLT-4): > 100 µM (inactive)
GI50 (DMS-114): > 100 µM (inactive)
GI50 (SK-OV-3): > 100 µM (inactive)
GI50 (NCI-H23): > 100 µM (inactive)
GI50 (K562): > 100 µM (inactive)

From ChEMBL document CHEMBL1201862, “PubChem BioAssay data set” (2004)
